Counter-ions that a name gives are not always drawn.

`Cc1cc(F)ccc1CC(C)(C)NCC(O)c1cc(O)cc2c1OCC(=O)N2` (centres unmarked) (as salt: hydrochloride): the melting point (in general, the temperature, or range, at which the solid turns liquid) lay within 278 to 280 °C.

`CC(C)(Cc1ccc(OCCCC(=O)O)cc1)NCC(O)c1cc(O)cc2c1OCC(=O)N2` (centres unmarked) (as salt: salt) [Example 16, Acid addition salt of 4-(4-{2-[2-hydroxy-2-(6-hydroxy-3-oxo-3,4-dihydro-2H-benzo[1,4]oxazin-8-yl)-ethylamino]-2-methyl-propyl}-phenoxy)-butyric acid] displayed a melting point of 201 to 204 °C. Then `Cc1cc(CC(C)(C)NCC(O)c2cc(O)cc3c2OCC(=O)N3)ccc1F` (centres unmarked) (as salt: hydrochloride), with 278 to 280 °C; and `Cc1cc(C)cc(CC(C)(C)NCC(O)c2cc(O)cc3c2OCC(=O)N3)c1` (centres unmarked) (as salt: hydrochloride), with 235 to 238 °C. The figure for `CC(C)(Cc1ccc(F)cc1F)NCC(O)c1cc(O)cc2c1OCC(=O)N2` (centres unmarked) (as salt: hydrochloride) is 279 to 280 °C.
